Test results reported in US20150005264A1, “PREDICTIVE BIOMARKER FOR HYPOXIA-ACTIVATED PRODRUG THERAPY” (THRESHOLD PHARMACEUTICALS, INC., priority 2012, published 2015).

System: melanoma
Assay: Clinical trial of TH-302 monotherapy in melanoma patients, response compared with serum CA-IX level
Assay type: in vivo, human
Details: thirty melanoma patients, pre-dose serum CA-IX (ELISA) cut-offs 28.8, 77.1, 178.3 pg/mL, FIG. 1
Method: In one important embodiment, the HAP is TH-302. In a clinical trial of TH-302 in melanoma patients, CA-IX levels were measured in serum samples taken from patients prior to TH-302 administration. Measured levels varied widely, with the first quartile having levels of 28.8 pg/mL CA-IX or less, the median being 77.1 pg/mL CA-IX, and the 3rd quartile having 178.3 pg/mL or less.
The data set used to generate the graphs in FIG. 1 was used to generate the graph in FIG. 2, which uses the 2×Median value of 154.2 pg/mL as the cut-off for dividing patients into high and low CA-IX level groups. Using this value as the cut-off, one sees an even more dramatic example of the predictive value of CA-IX levels in determining whether a patient will respond to TH-302 or other HAP therapy.

Cn1c(COP(=O)(NCCBr)NCCBr)cnc1[N+](=O)[O-] [TH-302, (2-bromoethyl)({[(2-bromoethyl)amino][(2-nitro-3-methylimidazol-4-yl)methoxy]phosphoryl})amine]
progression-free survival (response to TH-302) versus serum CA-IX level: higher CA-IX levels correlated to a better response to TH-302
